Data as given in patent US20080161340A1, “Tetrahydroquinilinones, tetrahydronaphthyridones and derivatives thereof” (priority 2006, published 2008).

What was measured:
Type in all cases: cell-based
hCB2 = target: T1, hCB2 (Homo sapiens, UniProt P34972); experiment: cAMP assay (LANCE TR-FRET) in CHO-K1 cells stably expressing hCB2, agonist/inverse agonist; conditions: intracellular cAMP, CHO-K1 hCB2 cells prestimulated with NKH-477; + agonist, − inverse agonist
T1 construct: host or cells: CHO-K1
Experimental: (§1) The ability of compounds to act as agonists or inverse agonists at human CB2 and CB1 receptors (hCB2, hCB1, respectively) was determined by measuring changes in intracellular cAMP levels. Chinese Hamster Ovary (CHO-K1) cell lines stably expressing hCB2 (Genebank: X74328) or hCB1 (Genebank: X54937) were purchased from Euroscreen (Gosselies, Belgium).
(§2) Cell lines were grown in suspension in EX-CELL 302 CHO Serum-free medium (Sigma, cat #14324C) supplemented with 1% Fetal Bovine Serum, glutamine and non-essential amino-acids under 0.4 mg/mL G418 selection.
(§3) Receptor mediated responses were determined by measuring changes in intracellular cAMP using LANCE cAMP detection kit (cat #AD0264, PerkinElmer, Wellesley, Mass.) based on time-resolved fluorescence resonance energy transfer (TR-FRET). Changes in cAMP were determined in cells pre-incubated with IBMX (isobutyl methylxanthine) and prestimulated with NKH-477 (a water soluble forskolin derivative, cat #1603, Tocris, Ellisville, Mo.) to increase basal cAMP levels as detailed below.
(§4) On the day of the experiment, cells were spun at low speed for 5 min at room temperature. The supernatant was removed and cells were resuspended in stimulation buffer (Hanks Buffered Salt Solution/5 mM HEPES, containing 0.5 mM IBMX (cat #17018, Sigma) and 0.02% BSA (PerkinElmer, cat #CR84-100)). Cell clumps were removed by filtering through cell strainer 40 μm (BD Falcon, Discovery Labware, Bedford, Mass.) and diluted to 2×10^5 cells/mL. Antibody supplied with the LANCE cAMP immunoassay kit was then added according to the manufacturer's instructions. An aliquot of cells was taken for un-induced controls. To the remaining cells was added NKH-477 (a water soluble forskolin derivative, Tocris cat #1603) to a final concentration of 2-8 μM. Cells were then incubated for 30 min at room temperature prior to adding to Proxiplates containing test compounds (final DMSO concentration was less than 0.5%) with a Multidrop bulk dispenser, followed by a sixty minute incubation at room temperature. The response was stopped by addition of the detection mix supplied with the LANCE kit.
(§5) The reagents were allowed to equilibrate for three hours prior to reading on an Envision multi-mode detector (PerkinElmer). TR-FRET was measured using a 330-380 nm excitation filter, a 665 nm emission filter, dichroic mirror 380 nm and Z=1 mm.
(§6) Cyclic AMP concentrations in each well were back-calculated from a cAMP standard curve run concurrently during each assay. Each plate contained 16 wells of forskolin stimulated cells and 16 wells of forskolin plus CP55,940-treated. CP55,940-treated cells were treated with CP55,940 (Tocris cat. # 0949) at 1 μm and the maximal response was used as the full range (100%) standard. WIN55,212 (Tocris cat. # 1038) was used as an internal standard. Concentrations of cAMP were expressed as a percent of the difference of these two groups of wells. Concentration-response data including ECso (the concentration of compound producing 50% of the maximal response) and intrinsic activity (the percent maximal activation compared to full activation by CP55,940) were determined using a four-parameter non-linear regression algorithm (Xlfit equation 251, IDBS).

hCB1 = target: T2, hCB1 (Homo sapiens, UniProt P21554); experiment: cAMP assay (LANCE TR-FRET) in CHO-K1 cells stably expressing hCB1, agonist/inverse agonist; conditions: intracellular cAMP, CHO-K1 hCB1 cells prestimulated with NKH-477, + agonist, − inverse agonist; for EC50: read-out: hCB1 EC50 class
T2 construct: host or cells: CHO-K1
Experimental: as §1, §2, §3, §4, §5, §6

rCB2 = target: T3, rCB2 (Rattus norvegicus, UniProt Q9QZN9); experiment: cAMP assay, rCB2 in Table 7, agonist/inverse agonist; conditions: intracellular cAMP; + agonist, − inverse agonist
T3 sequence (Q9QZN9 1-360): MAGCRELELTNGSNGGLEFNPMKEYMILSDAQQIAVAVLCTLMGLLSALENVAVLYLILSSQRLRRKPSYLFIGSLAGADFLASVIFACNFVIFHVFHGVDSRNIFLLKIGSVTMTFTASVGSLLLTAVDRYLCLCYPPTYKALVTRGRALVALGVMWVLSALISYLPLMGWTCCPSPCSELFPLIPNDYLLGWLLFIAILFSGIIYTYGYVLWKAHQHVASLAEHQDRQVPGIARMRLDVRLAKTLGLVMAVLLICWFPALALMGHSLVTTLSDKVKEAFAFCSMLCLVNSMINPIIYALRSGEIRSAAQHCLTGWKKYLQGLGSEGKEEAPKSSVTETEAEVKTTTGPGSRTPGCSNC
Experimental: as §3, §4, §5, §6

T2 sequence (P21554 whole entry): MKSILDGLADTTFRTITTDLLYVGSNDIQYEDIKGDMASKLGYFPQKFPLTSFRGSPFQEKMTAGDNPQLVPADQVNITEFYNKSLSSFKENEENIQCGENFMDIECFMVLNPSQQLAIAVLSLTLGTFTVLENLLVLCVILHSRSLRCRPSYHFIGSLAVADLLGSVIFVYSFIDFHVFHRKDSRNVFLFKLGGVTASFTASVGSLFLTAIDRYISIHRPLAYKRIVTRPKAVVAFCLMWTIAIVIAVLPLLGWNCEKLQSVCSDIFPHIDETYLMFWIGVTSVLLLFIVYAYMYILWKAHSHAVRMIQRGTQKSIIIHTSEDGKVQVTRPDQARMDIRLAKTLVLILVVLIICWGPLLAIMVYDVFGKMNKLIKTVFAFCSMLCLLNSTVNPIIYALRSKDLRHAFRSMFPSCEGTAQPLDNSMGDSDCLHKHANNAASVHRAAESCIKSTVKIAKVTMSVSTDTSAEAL
T1 sequence (P34972 whole entry): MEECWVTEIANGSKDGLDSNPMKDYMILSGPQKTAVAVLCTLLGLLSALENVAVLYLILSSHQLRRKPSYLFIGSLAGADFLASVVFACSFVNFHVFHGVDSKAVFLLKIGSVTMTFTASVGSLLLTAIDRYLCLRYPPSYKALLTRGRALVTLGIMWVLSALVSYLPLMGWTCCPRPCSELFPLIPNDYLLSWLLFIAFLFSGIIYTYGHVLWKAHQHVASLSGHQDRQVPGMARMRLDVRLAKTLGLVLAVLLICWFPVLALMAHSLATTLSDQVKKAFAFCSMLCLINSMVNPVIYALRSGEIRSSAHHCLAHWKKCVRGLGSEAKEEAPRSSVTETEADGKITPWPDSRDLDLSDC

SMILES | hCB2 EC50 class (hCB2) | hCB1 EC50 class (hCB1) | rCB2 EC50 class (rCB2) | EC50 (hCB1)
CC(C)CS(=O)(=O)N1CCc2c(cc(-c3cccc(Cl)c3)c(=O)n2CC2CC2)C1 [Compound 50, 3-(3-chlorophenyl)-1-(cyclopropylmethyl)-6-(isobutylsulfonyl)-5,6,7,8-tetrahydro-1,6-naphthyridin-2(1H)-one] | +C | −B | −B | 
COc1cccc(-c2cc3c(n(CC4CCC4)c2=O)CCN(S(C)(=O)=O)C3)c1 [Compound 52, 1-(cyclobutylmethyl)-3-(3-methoxyphenyl)-6-(methylsulfonyl)-5,6,7,8-tetrahydro-1,6-naphthyridin-2(1H)-one] | +B |  | +A | > 10 µM
CS(=O)(=O)N1CCc2c(cc(-c3ccccc3F)c(=O)n2CC2CCC2)C1 [Compound 53, 1-(cyclobutylmethyl)-3-(2-fluorophenyl)-6-(methylsulfonyl)-5,6,7,8-tetrahydro-1,6-naphthyridin-2(1H)-one] | +A |  | +A | > 10 µM
CC(=O)N1CCc2c(cc(-c3ccccc3F)c(=O)n2CC2CCC2)C1 [Compound 54, 6-acetyl-1-(cyclobutylmethyl)-3-(2-fluorophenyl)-5,6,7,8-tetrahydro-1,6-naphthyridin-2(1H)-one] | +B |  | +A | > 10 µM
CS(=O)(=O)N1CCc2c(cc(Cc3ccccc3F)c(=O)n2CC2CCC2)C1 [Compound 58, 1-(cyclobutylmethyl)-3-(2-fluorobenzyl)-6-(methylsulfonyl)-5,6,7,8-tetrahydro-1,6-naphthyridin-2(1H)-one] | +A | +B | +A | 
